Experimental findings from PubChem BioAssay (NCI) are described below.

Holding throughout (assay): growth of human tumour cells (NCI), 48 h
Assay [1] has as its system NCI-H23 lung.
The test system of assay [2] is HOP-92 NSCLC.
Assay [3] deals with NCI-H522 lung.
Assay [4] has as its system NCI/ADR-RES ovarian.
Assay [5] concerns SK-OV-3 ovarian.
Assay [6] deals with UACC-257 melanoma.
Assay [7] deals with UO-31 renal.
Assay [8] concerns MOLT-4 leukemia.
Assay [9] relates to OVCAR-5 ovarian.
For assay [10], the system named is K-562 leukemia.
Assay [11] concerns MDA-MB-435.
The test system of assay [12] is SF-539 CNS.
Assay [13] deals with HCC-2998 colon.
Assay [14] has as its system U251 CNS.
The test system of assay [15] is EKVX NSCLC.
Assay [16] concerns ACHN renal.

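The compound was tested at five concentrations on cells cultured in 96-well plates, with a 48-hour exposure period. Abbreviation: GI50, concentration required for 50% inhibition of growth. The concentration for full growth arrest is given as TGI.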 Where only a bound is given, the exact number is not on record here.

As to `CCN(CC)C(=S)/N=C(\SC(=S)N(CC)CC)c1ccccc1`, the TGI was above 100 µM in assay [1]; above 100 µM in assay [2]; 3.39 µM in assay [3]; above 100 µM in assay [4]; above 100 µM in assay [5]; above 100 µM in assay [6]. For the same molecule, the TGI is above 88.2 µM in assay [7]; above 74.8 µM in assay [8]; above 100 µM in assay [9]; above 100 µM in assay [10]; above 100 µM in assay [11]; above 100 µM in [12]. Besides, the TGI in assay [13], in [14], in assay [15] and in [16] was above 100 µM throughout.

For `CC1(C)CCCC2CC2CCC(C)(C)C1=O` (stereo not given), the TGI in assay [1], in assay [2], in assay [3], in assay [4], in assay [5] and in [6] was above 100 µM each time. Moreover, the TGI was above 100 µM in assay [7]; 83.1 µM in assay [8]; above 100 µM in assay [9]; 40.1 µM in [10]; above 100 µM in [11]; above 100 µM in assay [12]. Moreover, the TGI is 21.7 µM in assay [13], 37.3 µM in assay [14], above 100 µM in [15] and above 100 µM in assay [16].

For `Brc1c2c(c(Br)c3nsnc13)N=S=N2`, the TGI in assay [1] was above 69.1 µM; in assay [2], 44.8 µM; in [3] it was above 57.5 µM; in assay [4] it was 79.8 µM; in assay [5], above 79.7 µM; in assay [6], above 100 µM. Moreover, the TGI in assay [7] is 56.7 µM; in assay [8] it was 68.9 µM; in [9], 64.3 µM; in assay [10] it was 33.3 µM; in assay [11], above 74.4 µM; in assay [12] it was 57.6 µM. The TGI in assay [13] is above 100 µM; in [14], 46.7 µM; in assay [15], above 74 µM; in assay [16] it was 72.2 µM.

As to `Cc1ccc(S(=O)(=O)NN=C2C(C)(C)CC2(C)C)cc1`, the TGI in [1], in assay [2], in [3], in assay [4], in assay [5] and in assay [6] was above 100 µM throughout. The TGI in assay [7], in [8], in assay [9], in assay [10], in assay [11] and in assay [12] was above 100 µM in each case. Further, the TGI in [13], in [14], in assay [15] and in assay [16] was above 100 µM throughout.

In the case of `CCC(=O)N(c1ccccc1)C(C)CN1CCC(O)(c2cccc(C(F)(F)F)c2)CC1` (stereo not given), the TGI in assay [1] was 47.5 µM; in [2] it was 61.6 µM; in [3], 39 µM; in assay [4], 53.4 µM; in [5] it was above 100 µM; in assay [6], 34.3 µM. Moreover, the TGI turned out to be 72.6 µM in assay [7]; 44.5 µM in assay [8]; 55.4 µM in assay [9]; 75.4 µM in [10]; 42 µM in assay [11]; 49 µM in assay [12]. Also, the TGI in [13] was 57.3 µM; in assay [14], above 100 µM; in assay [15], above 100 µM; in assay [16] it was above 100 µM.

For the molecule `COc1ccc(OC)c(N=Cc2cc(OC)c(OC)c(OC)c2)c1`, the TGI in assay [1] is above 100 µM; in assay [2] it was above 78 µM; in assay [3], 57.7 µM; in assay [4] it was above 100 µM; in assay [5] it was above 100 µM; in [6], above 100 µM. The TGI in assay [7] is above 100 µM; in assay [8], above 100 µM; in assay [9] it was above 100 µM; in assay [10], above 100 µM; in [11], above 76.2 µM; in assay [12], above 100 µM. For the same molecule, the TGI in assay [13], in assay [14], in assay [15] and in assay [16] was above 100 µM in each case.

As for `C[C@@H](Oc1ccc(Oc2cnc3ccc(Cl)cc3n2)cc1)C(=O)O`, the TGI in assay [1], in assay [2], in [3], in [4], in assay [5] and in [6] was above 100 µM in each case. Moreover, the TGI in assay [7], in assay [8], in assay [9], in assay [10], in assay [11] and in assay [12] was above 100 µM each time. Also, the TGI in [13], in assay [14], in assay [15] and in assay [16] was above 100 µM throughout. Moreover, the GI50 in assay [8] was above 23.7 µM; in assay [12] it was above 87.9 µM.

In the case of `O=C(/C=C\c1ccsc1)c1ccccc1`, the TGI in [1] was determined as 15.6 µM; in assay [2], 41.4 µM; in assay [3], 4.34 µM; in assay [4] it was 32.4 µM; in assay [5], 30.8 µM; in assay [6] it was 34.8 µM. Besides, the TGI in [7] was 19.2 µM; in assay [8], above 100 µM; in assay [9], 32.4 µM; in assay [10], above 70.6 µM; in assay [11] it was 23.1 µM; in assay [12], 24.2 µM. Also, the TGI amounted to 24.3 µM in assay [13], 15.3 µM in [14], 27.7 µM in assay [15] and 21.1 µM in [16].
